# Test results reported in PubChem BioAssay (NCI).
# Values joined by “and” are separate entries in the source; they are usually repeats but may differ in a detail not shown here. Identical values can stand only once.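 In this assay, cells in 96-well plates receive the compound at five concentrations for 48 hours. Endpoints are linearly interpolated between the surrounding concentrations. GI50 = concentration required for 50% inhibition of growth. The concentration for full growth arrest is given as TGI.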
# Assays:
# Experiment in all cases: NCI tumour cell line growth inhibition, 48 h
# A498 renal = test system: A498 renal
# HT29 colon = test system: HT29 colon
# K-562 leukemia = test system: K-562 leukemia
# MOLT-4 leukemia = test system: MOLT-4 leukemia
# NCI-H522 lung = test system: NCI-H522 lung
# OVCAR-5 ovarian = test system: OVCAR-5 ovarian
# RXF 393 renal = test system: RXF 393 renal
# SF-295 CNS = test system: SF-295 CNS
# SNB-19 CNS = test system: SNB-19 CNS
# UACC-62 melanoma = test system: UACC-62 melanoma
Structure (SMILES),GI50 (A498 renal) [µM],TGI (A498 renal),GI50 (HT29 colon),TGI (HT29 colon) [µM],GI50 (K-562 leukemia),TGI (K-562 leukemia) [µM],GI50 (MOLT-4 leukemia),TGI (MOLT-4 leukemia) [µM],GI50 (NCI-H522 lung) [µM],TGI (NCI-H522 lung),GI50 (OVCAR-5 ovarian),TGI (OVCAR-5 ovarian) [µM],GI50 (RXF 393 renal),TGI (RXF 393 renal),GI50 (SF-295 CNS),TGI (SF-295 CNS),GI50 (SNB-19 CNS),TGI (SNB-19 CNS) [µM],GI50 (UACC-62 melanoma),TGI (UACC-62 melanoma)
Oc1c(Cl)cc(Cl)cc1C(c1cc(Cl)cc(Cl)c1O)C(Cl)(Cl)Cl,1.68,5.77 µM,3.03 µM,11.4,1.1 µM,20.4,3.67 µM,10.4,0.964,26.7 µM,3.27 µM,14.5,2.38 µM,6.66 µM,1.35 µM,3.53 µM,3.23 µM,15.8,0.73 µM,10.6 µM
CCn1c(-c2nonc2N)nc2c(C#CC(C)(C)O)ncc(OC[C@H]3CCCNC3)c21,0.0469,0.584 µM,17.5 µM,51.5,11.4 µM,> 89.2,0.23 µM,31.5,12.2,33.2 µM,27.6 µM,58.4,0.228 µM,11.6 µM,0.794 µM,22 µM,15.1 µM,42.8,12.9 µM,28.2 µM
NC1=NN(c2ccccc2)C(=O)C1C(=O)C(=O)Nc1nccs1 (stereo not drawn),,> 100 µM,,> 100,,> 100,,> 100,,> 100 µM,,> 100,,> 100 µM,,> 100 µM,,> 100,,> 100 µM
C/C=C(\CCOS(=O)(=O)c1ccc(C)cc1)[Si](C)(C)C,,> 100 µM,,> 100,,> 100,,> 100,,> 100 µM,,> 100,,> 100 µM,,> 100 µM,,> 100,,> 100 µM
CC(=O)O[C@H]1[C@@H]2OC(=O)C(CSc3ccccc3)[C@@H]2C[C@H]2O[C@]2(C)CC/C=C(\C)CCC[C@@H]1C (stereo partly drawn),2.17,6.37 µM,3.51 µM,14.9,2.15 µM,> 24.6,2.52 µM,> 23.8,1.74,3.68 µM,12.4 µM,33.7,1.88 µM,3.79 µM,3.73 µM,34.6 µM,11.9 µM,62.8,4.65 µM,14.8 µM
Cc1ccc(NC(=O)CSc2nnc3n(Cc4ccccc4)c(=O)c4c(C)c(C(N)=O)sc4n23)cc1,13.2,63.1 µM,> 100 µM,> 100,42.5 µM,> 100,27.3 µM,81.5,3.85,> 100 µM,64.7 µM,> 100,6.88 µM,39 µM,26.7 µM,76.6 µM,14.6 µM,> 100,> 100 µM,> 100 µM
N#CC1(C#N)C2C=CC(c3coc4cccc2c34)C1(C#N)C#N (stereo not drawn),,34.6 µM,,41.6,,6.22,,6.35,,3.4 µM,,30.8,,9.66 µM,,42.8 µM,,33.8,,24.4 µM
Cc1ccc(NS(=O)(=O)c2cccc(C#N)c2)c2[nH]cc(C#N)c12,,5.32 µM and 51.2 µM,33.5 µM and 12.5 µM,> 100,2.59 µM and 5.08 µM,> 100,8.87 µM and 13.6 µM,> 100,,59.9 µM and 23.2 µM,16.7 µM and 30.6 µM,> 92.7,17.6 µM and 1.99 µM,74.3 µM and 68.1 µM,2.85 µM and 2.22 µM,49.7 µM and 52.9 µM,16.1 µM and 24.6 µM,> 100,7.07 µM and 15.4 µM,32.2 µM and 53.2 µM
O=C(N/N=C/c1ccc(O)cc1O)c1cccc(Nc2ccnc(C(F)(F)F)c2)c1,12.8,> 51 µM,5.14 µM,> 100,0.587 µM,19.4,0.491 µM,4.56,1.27,22.6 µM,6.28 µM,66.8,2.48 µM,17.4 µM,1.88 µM,45.8 µM,1.01 µM,> 72.6,0.33 µM,7.37 µM
CC(CN(C)C)Oc1ccccc1NC1=C(Cl)C(=O)C(Nc2ccccc2OC(C)CN(C)C)=C(Cl)C1=O (stereo not drawn),1.51,2.86 µM,0.179 µM,0.423,0.21 µM,0.507,0.195 µM,0.51,0.157,0.337 µM,0.935 µM,2.44,0.663 µM,2.03 µM,1.83 µM,3.46 µM,1.71 µM,3.28,1.55 µM,3.05 µM
